# Measured values: US9265253B2, “Use of macrocyclic picolinamides as fungicides” (DOW AGROSCIENCES LLC, priority 2013, dated 2016)
# Where two headings read alike, the source gives them in different places.
# Experiments:
# Type in all cases: in vivo
# [1] = tested on: Uncinula necator; assay: Grape Powdery Mildew (UNCINE) disease control; conditions: Erysiphe necator, topical, 24 h, 1 Day Protectant, read-out: Disease Control UNCINE 1 DP
# Protocol: Technical grades of materials were dissolved in acetone, which were then mixed with nine volumes of water containing 110 ppm Triton X-100. The fungicide solutions were applied onto wheat seedlings using an automated booth sprayer to run-off. All sprayed plants were allowed to air dry prior to further handling. All fungicides were evaluated using the aforementioned method for their activity vs. all target diseases. Wheat leaf blotch and brown rust activity were also evaluated using track spray applications, in which case the fungicides were formulated as EC formulations, containing 0.1% Trycol 5941 in the spray solutions. Wheat plants (variety Yuma) were grown from seed in a greenhouse in 50% mineral soil/50% soil-less Metro mix until the first leaf was fully emerged, with 7-10 seedlings per pot. These plants were inoculated with an aqueous spore suspension of Septoria tritici either prior to or after fungicide treatments. After inoculation the plants were kept in 100% relative humidity (one day in a dark dew chamber followed by two to three days in a lighted dew chamber at 20° C.) to permit spores to germinate and infect the leaf. The plants were then transferred to a greenhouse set at 20° C. for disease to develop. When disease symptoms were fully expressed on the 1st leaves of untreated plants, infection levels were assessed on a scale of 0 to 100 percent disease severity. Percent disease control was calculated using the ratio of disease severity on treated plants relative to untreated plants. Grape seedlings (variety Carignane) were grown in soil-less Metro mix, with one plant per pot, and used in the test when approximately one month old. Plants were inoculated 24 hr after fungicide treatment by shaking spores from infected leaves over test plants. Plants were maintained in a greenhouse set at 20° C. until disease was fully developed. Fungicide formulation, application and disease assessment on the sprayed leaves followed the procedures as described in the Example A.
# [2] = tested on: Cercospora beticola; assay: Leaf Spot of Sugar Beets (CERCBE) disease control; conditions: Cercospora beticola, topical, 24 h, 1 Day Protectant, sugar beet, read-out: Disease Control CERCBE 1 DP
# Protocol: Technical grades of materials were dissolved in acetone, which were then mixed with nine volumes of water containing 110 ppm Triton X-100. The fungicide solutions were applied onto wheat seedlings using an automated booth sprayer to run-off. All sprayed plants were allowed to air dry prior to further handling. All fungicides were evaluated using the aforementioned method for their activity vs. all target diseases. Wheat leaf blotch and brown rust activity were also evaluated using track spray applications, in which case the fungicides were formulated as EC formulations, containing 0.1% Trycol 5941 in the spray solutions. Wheat plants (variety Yuma) were grown from seed in a greenhouse in 50% mineral soil/50% soil-less Metro mix until the first leaf was fully emerged, with 7-10 seedlings per pot. These plants were inoculated with an aqueous spore suspension of Septoria tritici either prior to or after fungicide treatments. After inoculation the plants were kept in 100% relative humidity (one day in a dark dew chamber followed by two to three days in a lighted dew chamber at 20° C.) to permit spores to germinate and infect the leaf. The plants were then transferred to a greenhouse set at 20° C. for disease to develop. When disease symptoms were fully expressed on the 1st leaves of untreated plants, infection levels were assessed on a scale of 0 to 100 percent disease severity. Percent disease control was calculated using the ratio of disease severity on treated plants relative to untreated plants. Sugar beet plants (variety HH88) were grown in soil-less Metro mix and trimmed regularly to maintain a uniform plant size prior to test. Plants were inoculated with a spore suspension 24 hr after fungicide treatments. Inoculated plants were kept in a dew chamber at 22° C. for 48 hr then incubated in a greenhouse set at 24° C. under a clear plastic hood with bottom ventilation until disease symptoms were fully expressed. Fungicide formulation, application and disease assessment on the sprayed leaves followed the procedures as described in the Example A.
# [3] = tested on: Magnaporthe grisea; Anamorph: Pyricularia oryzae; assay: whole plant or invertebrate; conditions: Pyricularia oryzae, topical, 24 h, read-out: Disease Control PYRIOR 1 DP
# [4] = tested on: Glomerella lagenarium; Anamorph: Colletotrichum lagenarium; assay: Cucumber Anthracnose (COLLLA) disease control; conditions: Colletotrichum orbiculare, topical, 24 h, 1 Day Protectant, read-out: Disease Control COLLLA 1 DP
# Protocol: Technical grades of materials were dissolved in acetone, which were then mixed with nine volumes of water containing 110 ppm Triton X-100. The fungicide solutions were applied onto wheat seedlings using an automated booth sprayer to run-off. All sprayed plants were allowed to air dry prior to further handling. All fungicides were evaluated using the aforementioned method for their activity vs. all target diseases. Wheat leaf blotch and brown rust activity were also evaluated using track spray applications, in which case the fungicides were formulated as EC formulations, containing 0.1% Trycol 5941 in the spray solutions. Wheat plants (variety Yuma) were grown from seed in a greenhouse in 50% mineral soil/50% soil-less Metro mix until the first leaf was fully emerged, with 7-10 seedlings per pot. These plants were inoculated with an aqueous spore suspension of Septoria tritici either prior to or after fungicide treatments. After inoculation the plants were kept in 100% relative humidity (one day in a dark dew chamber followed by two to three days in a lighted dew chamber at 20° C.) to permit spores to germinate and infect the leaf. The plants were then transferred to a greenhouse set at 20° C. for disease to develop. When disease symptoms were fully expressed on the 1st leaves of untreated plants, infection levels were assessed on a scale of 0 to 100 percent disease severity. Percent disease control was calculated using the ratio of disease severity on treated plants relative to untreated plants. Cucumber seedlings (variety Bush Pickle) were propagated in soil-less Metro mix, with each pot having one plant, and used in the test when 12 to 14 days old. Test plants were inoculated with an aqueous spore suspension of Colletotrichum lagenarium 24 hr after fungicide treatments. After inoculation the plants were kept in a dew room at 22° C. with 100% relative humidity for 48 hr to permit spores to germinate and infect the leaf. The plants were then transferred to a growth room set at 22° C. for disease to develop. Fungicide formulation, application and disease assessment on the sprayed leaves followed the procedures as described in the Example A.
# [5] = tested on: Phakopsora pachyrhizi; assay: Asian Soybean Rust (PHAKPA) disease control; conditions: for pest or weed control at 25 ppm: Phakopsora pachyrhizi, topical
# Protocol: Technical grades of materials were dissolved in acetone, which were then mixed with nine volumes of water containing 0.011% Tween 20. The fungicide solutions were applied onto soybean seedlings using an automated booth sprayer to run-off. All sprayed plants were allowed to air dry prior to further handling.
# Soybean plants (variety Williams 82) were grown in soil-less Metro mix, with one plant per pot. Two weeks old seedlings were used for testing. Plants were inoculated either 3 days prior to or 1 day after fungicide treatments. Plants were incubated for 24 h in a dark dew room at 22° C. and 100% RH then transferred to a growth room at 23° C. for disease to develop. Disease severity was assessed on the sprayed leaves.
# [6] = 24 h, 1 Day Protectant, read-out: Disease Control PHAKPA 1DP
# [7] = 72 h, 3 Day Curative, read-out: Disease Control PHAKPA 3DC
SMILES,pest or weed control at 100 ppm [1] [%],pest or weed control at 100 ppm [2] [%],pest or weed control at 100 ppm [3] [%],pest or weed control at 100 ppm [4] [%],"pest or weed control at 25 ppm [5, 6] [%]","pest or weed control at 25 ppm [5, 7] [%]","Disease Control PHAKPA 3DC ([5]; 25 ppm, 3 Day Curative)"
COc1ccnc(C(=O)N[C@H]2CCC[C@H](Cc3ccccc3)[C@@H](Oc3ccccc3)[C@H](C)OC2=O)c1OCOC(C)=O [Compound F108],80 to 100,80 to 100,80 to 100,80 to 100,–,–,–
CCCO[C@@H]1[C@@H](Cc2ccccc2)CCC[C@H](NC(=O)c2nccc(OC)c2OC(C)=O)C(=O)O[C@H]1C [Compound F88],80 to 100,80 to 100,80 to 100,80 to 100,–,–,–
CCOCC(=O)OCOc1c(OC)ccnc1C(=O)N[C@H]1CCC[C@H](Cc2ccc(F)cc2)[C@@H](OCC(C)C)[C@H](C)OC1=O [Compound F168],80 to 100,–,–,80 to 100,80 to 100,0 to 80,–
CCOCC(=O)OCOc1c(OC)ccnc1C(=O)N[C@H]1CCC[C@H](CC2CCCCC2)[C@@H](OCC(C)C)[C@H](C)OC1=O [Compound F175],0 to 80,80 to 100,80 to 100,–,–,–,–
COCC[C@H]1CCC[C@H](NC(=O)c2nccc(OC)c2OCOC(C)=O)C(=O)O[C@@H](C)[C@@H]1Oc1ccccc1 [Compound F130],0 to 80,0 to 80,80 to 100,80 to 100,80 to 100,80 to 100,–
C=C[C@H]1CCC[C@H](NC(=O)c2nccc(OC)c2OC(C)=O)C(=O)O[C@@H](C)[C@@H]1Oc1ccccc1 [Compound F86],80 to 100,80 to 100,80 to 100,80 to 100,80 to 100,0 to 80,–
COc1ccnc(C(=O)N[C@H]2CCC[C@H](Cc3ccc(F)cc3)[C@@H](OCC(C)C)[C@H](C)OC2=O)c1OCOC(C)=O [Compound F102],0 to 80,–,–,80 to 100,–,–,–
COc1ccnc(C(=O)N[C@H]2CCC[C@H](Cc3ccc(F)cc3)[C@@H](OCC3CC3)[C@H](C)OC2=O)c1OCOC(C)=O [Compound F96],80 to 100,80 to 100,80 to 100,80 to 100,80 to 100,–,B (More than 0-Less than 80)
COc1ccnc(C(=O)N[C@H]2CCC[C@H](Cc3ccccc3)[C@@H](OCC(C)C)[C@H](C)OC2=O)c1OCOC(C)=O [Compound F106],80 to 100,80 to 100,80 to 100,80 to 100,80 to 100,0 to 80,–
